# Laboratory results reported in PMC10274775 (bioRxiv, 2023).
# Legend:
# [1] = molecular target: T1, MCU-MICU1 complex (MICU1-1 dimer) (Homo sapiens, UniProt Q8NE86+Q9BPX6); experiment: co-immunoprecipitation from HEK lysate, western blot; type: biochemical; conditions: 1 mM spermine, 1 mM EGTA; disruption of the MCU-MICU1 interaction; pH 7.4, 4 mM DDM
# T1 sequence (Q8NE86 51-351): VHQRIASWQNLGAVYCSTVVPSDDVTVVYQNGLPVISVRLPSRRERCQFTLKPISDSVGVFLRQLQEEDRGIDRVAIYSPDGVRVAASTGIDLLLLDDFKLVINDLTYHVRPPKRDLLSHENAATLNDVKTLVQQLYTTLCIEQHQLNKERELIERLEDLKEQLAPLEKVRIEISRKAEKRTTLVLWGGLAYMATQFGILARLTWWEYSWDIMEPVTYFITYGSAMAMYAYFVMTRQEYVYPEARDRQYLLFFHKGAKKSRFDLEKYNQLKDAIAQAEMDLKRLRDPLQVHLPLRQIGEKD
# T1 sequence (Q9BPX6 34-476): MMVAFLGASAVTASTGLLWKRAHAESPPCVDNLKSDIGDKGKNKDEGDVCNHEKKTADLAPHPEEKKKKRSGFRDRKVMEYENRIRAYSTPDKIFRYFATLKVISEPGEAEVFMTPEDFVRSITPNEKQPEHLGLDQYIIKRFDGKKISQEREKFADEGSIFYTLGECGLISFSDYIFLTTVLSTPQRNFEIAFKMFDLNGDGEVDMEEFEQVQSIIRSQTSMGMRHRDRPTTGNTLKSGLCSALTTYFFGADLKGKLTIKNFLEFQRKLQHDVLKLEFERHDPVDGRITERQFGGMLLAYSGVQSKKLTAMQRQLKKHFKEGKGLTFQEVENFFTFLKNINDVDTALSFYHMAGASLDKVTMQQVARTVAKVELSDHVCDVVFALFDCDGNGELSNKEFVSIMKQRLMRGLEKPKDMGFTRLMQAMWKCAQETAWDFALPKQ
# [2] = molecular target: T2, uniporter with MICU1-MICU1 homodimer (MICU2-KO HEK cells) (Homo sapiens, UniProt Q8NE86+Q9BPX6); experiment: Fluo-4 extramitochondrial Ca2+ in digitonin-permeabilized MICU2-KO HEK cells; type: biochemical
# T2 sequence (Q8NE86 51-351): T1 sequence (Q8NE86 51-351)
# T2 sequence (Q9BPX6 34-476): T1 sequence (Q9BPX6 34-476)
# T2 sequence (Q9H4I9 53-107 partner): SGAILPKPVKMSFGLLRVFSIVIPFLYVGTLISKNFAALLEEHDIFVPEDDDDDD
structure (smiles),measurement,setting,value
NCCCNCCCCNCCCN [spermine],"co-immunoprecipitation from HEK lysate, western blot",[1],spermine fully breaks complex formation between MCU and the MICU1-1 dimer
same,EC50,[2],158 µM
